Assay results as given in PubChem BioAssay (NCI).
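Dose response: 5 concentrations. Exposure: 48 h. Format: 96-well plates. Endpoint: linear interpolation; highest concentration if not reached. GI50: concentration for 50% inhibition of growth. TGI: concentration producing complete growth inhibition.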

Legend:
Assay in all cases: inhibition of tumour cell growth, NCI panel, 48 h
A498 renal = tested on: A498 renal
HS 578T breast = tested on: HS 578T breast
M14 melanoma = tested on: M14 melanoma
MDA-MB-231 breast = tested on: MDA-MB-231 breast
MOLT-4 leukemia = tested on: MOLT-4 leukemia
NCI-H23 lung = tested on: NCI-H23 lung
SF-268 CNS = tested on: SF-268 CNS
SK-OV-3 ovarian = tested on: SK-OV-3 ovarian
SW-620 colon = tested on: SW-620 colon
U251 CNS = tested on: U251 CNS

Compound	TGI (A498 renal) [µM]	TGI (HS 578T breast) [µM]	TGI (M14 melanoma) [µM]	TGI (MDA-MB-231 breast) [µM]	TGI (MOLT-4 leukemia) [µM]	TGI (NCI-H23 lung) [µM]	TGI (SF-268 CNS) [µM]	TGI (SK-OV-3 ovarian) [µM]	TGI (SW-620 colon) [µM]	TGI (U251 CNS) [µM]	GI50 (A498 renal) [µM]	GI50 (HS 578T breast) [µM]	GI50 (M14 melanoma) [µM]	GI50 (MOLT-4 leukemia) [µM]	GI50 (SF-268 CNS) [µM]	GI50 (SK-OV-3 ovarian) [µM]	GI50 (SW-620 colon) [µM]	GI50 (U251 CNS) [µM]	GI50 (MDA-MB-231 breast) [µM]	GI50 (NCI-H23 lung) [µM]
Cc1ccccc1C(=O)N/N=C/c1ccc(Sc2nccn2C)c([N+](=O)[O-])c1	> 100	> 100	> 100	> 100	> 100	> 100	> 100	> 100	> 100	> 100	–	–	–	–	–	–	–	–	–	–
CN(C)CC(CC1=C(CC(CN(C)C)N(C)C)CCC1)N(C)C (stereo unspecified)	> 100	–	–	–	> 100	> 100	> 100	> 100	> 100	> 100	–	–	–	–	–	–	–	–	–	–
CCOC(=O)C(NC(=O)c1ccco1)(Nc1nc2ccc(OCC)cc2s1)C(F)(F)F (stereo unspecified)	–	> 100	> 100	> 100	> 100	> 100	> 100	> 100	> 100	> 100	–	–	–	–	–	–	–	–	–	–
CNC(=O)OCc1c(CO)nc(SC)n1C	> 100	–	–	–	> 100	> 100	> 100	> 100	> 100	> 100	–	–	–	–	–	–	–	–	–	–
CC1=NN(c2cccc(Cl)c2)C2(SCC(=O)N2c2nc3ccccc3s2)/C1=C\c1cccs1 (stereo unspecified)	59	59	89.3	87	30.4	43.5	44	–	> 100	41.6	–	–	–	–	–	–	–	–	–	–
CCN(CC(=O)O)C(=O)c1cccnc1	> 100	> 100	> 100	> 100	> 100	> 100	> 100	–	> 100	> 100	–	–	–	–	–	–	–	–	–	–
C(=N\NC1=NCCN1)/c1ccc(-c2cn3cc(/C=N/NC4=NCCN4)ccc3n2)cc1	> 100	> 100	> 62.6	34.6	> 37.4	> 100	> 66.1	> 100	> 100	> 64.9	–	–	–	–	–	–	–	–	–	–
Fc1ccc(C(OCCN2CCC3CCC(C2)N3C/C=C/c2ccco2)c2ccc(F)cc2)cc1 (stereo unspecified)	23.3	34.3	18.8	23.6	20.4	24	25.9	30.3	21.6	21.1	–	–	–	–	–	–	–	–	–	–
CC(=O)C1=C(C)N(c2ccc(C)cc2)C2(O)C=CC(=O)C3C(=O)N(c4ccccc4)C(=O)C132 (stereo unspecified)	39.6	> 100	> 100	42.8	–	46.1	> 100	–	22.7	65.6	–	–	–	–	–	–	–	–	–	–
CCC(C)C1=C(OC(C)=O)[N+]2([O-])Oc3ccc(-c4c(OC(C)=O)c(OC(C)=O)c(-c5ccc(OC(C)=O)cc5)c(OC(C)=O)c4OC(C)=O)cc3OC2(C(C)CC)C(=O)N1OC(C)=O (stereo unspecified)	> 50	–	> 50	> 50	29.3	> 50	37.6	> 50	> 50	> 50	–	–	–	–	–	–	–	–	–	–
Cc1nn(-c2ccccc2)c(C)c1/C=N/N=C1\SCC(=O)N1c1ccccc1	78.3	> 100	60.7	> 100	> 100	86.4	> 100	83	> 100	69.3	–	–	–	–	–	–	–	–	–	–
COc1ccc2c(c1)[nH]c1c(/C=C/c3ccccc3)nccc12	26.6	45.3	35.3	37.2	> 100	35.9	36.7	34.9	91.9	38.9	–	–	–	–	–	–	–	–	–	–
NC(=O)c1c(NC(=O)c2ccccn2)sc2c1CCC(=O)C2	> 100	> 100	> 100	–	> 100	–	> 100	> 100	> 100	> 100	> 100	4.22	3.88	> 100	3.49	> 100	0.882	2.14	–	–
COc1ccc(C(=O)/C=C/c2cccc([N+](=O)[O-])c2)c(OC)c1	> 50	> 50	> 50	> 50	3.88	> 50	> 50	> 50	2.54	1.72	11.1	3.85	1.62	1.17	1.62	18.9	1.2	0.881	1.92	2.61
O=C(O)C1C2CCC(O2)C1C(=O)Nc1cccc2cccnc12 (stereo unspecified)	> 100	> 100	> 100	> 100	–	> 100	–	> 100	> 100	> 100	–	–	–	–	–	–	–	–	–	–
O=C(c1cccs1)N(C(=S)OC12CC3CC(CC(C3)C1)C2)c1ccccc1	> 100	> 100	43	> 100	> 100	> 100	> 100	> 100	> 100	> 100	–	–	–	–	–	–	–	–	–	–
O=c1cccccc1[O-].O=c1cccccc1[O-].[O]=[U+2]=[O]	45.8	–	73.2	–	82	> 100	–	74.5	> 100	72	25.1	–	–	–	–	–	–	25.9	–	–
C[C@H](CCC(=O)O)[C@H]1CC[C@@]2(C)[C@@H]3C(=O)C[C@H]4C(C)(C)[C@@H](O)CC[C@]4(C)[C@H]3C(=O)C[C@]12C	> 100	> 100	> 100	> 100	> 100	> 100	> 100	> 100	> 100	> 100	–	–	–	–	–	–	–	–	–	–
Clc1cc2c(cc1Cl)CC(NCCN1CCCC1)CC2 (stereo unspecified)	27.4	42.4	25.4	30.3	60	30.9	29.7	34.9	45.7	31.1	–	–	–	–	–	–	–	–	–	–
